Measured values taken from ChEMBL document CHEMBL3885861, “Open TG-GATES”.

Species: Rattus norvegicus
Experiment: Open TG-GATES - Regimen: Daily Repeat
Type: toxicity, organism-based, Sprague-Dawley
Set-up: regimen Daily Repeat, gender Male, age 6 weeks
Settings: in vivo, po, route gavage; for TP / gamma-GTP / ALP / ALT / AST / CRE / Ca / Cl / DBIL / GLC / IP / K / LDH / RALB / TBIL / TC / TG: tissue Plasma; for APTT / Bas / Eos / Fbg / Ht / Lym / MCH / MCHC / MCV / Mono / PT / Plat / RBC / Ret / WBC / Neu: tissue Blood; for KIDNEY_L / KIDNEY_R / KIDNEY_TOTAL: tissue Kidney
[1] = 10 mg/kg, […], dose level Low, time 28 day
[2] = 30 mg/kg, 72 h, dose level Middle, time 3 day
[3] = 30 mg/kg, […], dose level Middle, time 7 day
[4] = 30 mg/kg, […], dose level Middle, time 14 day
[5] = 30 mg/kg, […], dose level Middle, time 28 day
[6] = 100 mg/kg, 72 h, dose level High, time 3 day
[7] = 100 mg/kg, […], dose level High, time 7 day
[8] = 100 mg/kg, […], dose level High, time 14 day
[9] = 100 mg/kg, […], dose level High, time 28 day

Cn1c(=O)c2c(ncn2C)n(C)c1=O [CAFFEINE]
TP [1]: 6 g/dL
gamma-GTP [1]: 2.4 IU/L
TERMINAL_BW [2]: 223.8 g
APTT [2]: 20.9 s
Bas [2]: 0%
Eos [2]: 0.8%
Fbg [2]: 330 mg/dL
Ht [2]: 41.1%
Lym [2]: 84%
MCH [2]: 21.2 pg
MCHC [2]: 33.4%
MCV [2]: 63.6 fL
Mono [2]: 1.2%
PT [2]: 15.5 s
Plat [2]: 114.5 x10_4/uL
RBC [2]: 646.4 x10_4/ul
Ret [2]: 5.2%
WBC [2]: 61.4 x10_2/uL
KIDNEY_L [2]: 1 g
KIDNEY_R [2]: 1 g
KIDNEY_TOTAL [2]: 2 g
ALP [2]: 1647.8 IU/L
ALT [2]: 40 IU/L
AST [2]: 67.4 IU/L
CRE [2]: 0.2 mg/dL
Ca [2]: 10.7 mg/dL
Cl [2]: 108.8 meq/L
DBIL [2]: 0 mg/dL
GLC [2]: 179.6 mg/dL
IP [2]: 8.1 mg/dL
K [2]: 4.4 meq/L
LDH [2]: 140.2 IU/L
RALB [2]: 3.1 g/dL
TBIL [2]: 0.004 mg/dL
TC [2]: 73.8 mg/dL
TG [2]: 87.6 mg/dL
TP [2]: 5.6 g/dL
gamma-GTP [2]: 1.2 IU/L
TERMINAL_BW [3]: 245.2 g
TERMINAL_BW [4]: 286.3 g
TERMINAL_BW [5]: 380.2 g
APTT [3]: 23.2 s
Bas [3]: 0%
Eos [3]: 0.8%
Fbg [3]: 310.2 mg/dL
Lym [3]: 80.8%
MCHC [3]: 33.6%
MCV [3]: 60.9 fL
Mono [3]: 1.4%
Neu [3]: 16%
PT [3]: 15.2 s
Plat [3]: 115.9 x10_4/uL
RBC [3]: 687.8 x10_4/ul
Ret [3]: 5.4%
WBC [3]: 79 x10_2/uL
APTT [4]: 23.9 s
Bas [4]: 0%
Eos [4]: 1%
Fbg [4]: 309 mg/dL
Ht [4]: 43.4%
Lym [4]: 76.2%
MCH [4]: 19.7 pg
MCHC [4]: 33.7%
MCV [4]: 58.4 fL
Mono [4]: 2%
Neu [4]: 20%
PT [4]: 15.2 s
Plat [4]: 109.9 x10_4/uL
RBC [4]: 743.8 x10_4/ul
Ret [4]: 3.9%
WBC [4]: 108 x10_2/uL
Bas [5]: 0%
Eos [5]: 1%
Fbg [5]: 315.2 mg/dL
Ht [5]: 43.1%
Lym [5]: 79.6%
MCH [5]: 19.4 pg
MCHC [5]: 35%
MCV [5]: 55.4 fL
Mono [5]: 2.4%
PT [5]: 15.5 s
Plat [5]: 100.3 x10_4/uL
RBC [5]: 778.6 x10_4/ul
Ret [5]: 2.7%
WBC [5]: 99.4 x10_2/uL
KIDNEY_L [3]: 1 g
KIDNEY_R [3]: 1 g
KIDNEY_TOTAL [3]: 2.1 g
KIDNEY_L [4]: 1.1 g
KIDNEY_R [4]: 1.2 g
KIDNEY_TOTAL [4]: 2.3 g
KIDNEY_L [5]: 1.5 g
KIDNEY_R [5]: 1.5 g
KIDNEY_TOTAL [5]: 3 g
ALP [3]: 1455 IU/L
ALT [3]: 45.6 IU/L
AST [3]: 75.6 IU/L
CRE [3]: 0.1 mg/dL
Ca [3]: 10.4 mg/dL
Cl [3]: 106.4 meq/L
DBIL [3]: 0 mg/dL
GLC [3]: 182.4 mg/dL
IP [3]: 7.7 mg/dL
K [3]: 4.1 meq/L
LDH [3]: 158.8 IU/L
RALB [3]: 3.1 g/dL
TBIL [3]: 0.01 mg/dL
TC [3]: 74.6 mg/dL
TG [3]: 79.8 mg/dL
TP [3]: 5.7 g/dL
gamma-GTP [3]: 1.6 IU/L
ALP [4]: 1460.4 IU/L
ALT [4]: 47.6 IU/L
AST [4]: 75.6 IU/L
CRE [4]: 0.2 mg/dL
Ca [4]: 10.4 mg/dL
Cl [4]: 106.6 meq/L
DBIL [4]: 0 mg/dL
GLC [4]: 196 mg/dL
IP [4]: 7 mg/dL
K [4]: 4.2 meq/L
LDH [4]: 145.8 IU/L
RALB [4]: 3 g/dL
TBIL [4]: 0.002 mg/dL
TC [4]: 73.2 mg/dL
TG [4]: 139.6 mg/dL
TP [4]: 5.9 g/dL
gamma-GTP [4]: 2.4 IU/L
ALP [5]: 1003 IU/L
ALT [5]: 44.8 IU/L
AST [5]: 71.8 IU/L
CRE [5]: 0.2 mg/dL
Ca [5]: 10.7 mg/dL
Cl [5]: 105.2 meq/L
DBIL [5]: 0 mg/dL
GLC [5]: 189.6 mg/dL
IP [5]: 7.6 mg/dL
K [5]: 3.9 meq/L
LDH [5]: 126.6 IU/L
RALB [5]: 3.2 g/dL
TBIL [5]: 0.01 mg/dL
TC [5]: 85.8 mg/dL
TG [5]: 88.6 mg/dL
TP [5]: 6.1 g/dL
gamma-GTP [5]: 2 IU/L
TERMINAL_BW [6]: 205.8 g
APTT [6]: 22.4 s
Bas [6]: 0%
Eos [6]: 1%
Fbg [6]: 319.6 mg/dL
Lym [6]: 74.4%
MCHC [6]: 33.8%
MCV [6]: 60.6 fL
Mono [6]: 1.6%
Neu [6]: 22.4%
PT [6]: 15.8 s
Plat [6]: 126.2 x10_4/uL
RBC [6]: 686 x10_4/ul
Ret [6]: 4.3%
WBC [6]: 81.5 x10_2/uL
KIDNEY_L [6]: 0.9 g
KIDNEY_R [6]: 0.9 g
KIDNEY_TOTAL [6]: 1.8 g
ALT [6]: 38 IU/L
AST [6]: 70.2 IU/L
CRE [6]: 0.2 mg/dL
Ca [6]: 10.8 mg/dL
Cl [6]: 108.6 meq/L
DBIL [6]: 0 mg/dL
GLC [6]: 169.6 mg/dL
IP [6]: 8.9 mg/dL
K [6]: 4.4 meq/L
LDH [6]: 159.6 IU/L
RALB [6]: 3.2 g/dL
TBIL [6]: 0.018 mg/dL
TG [6]: 43 mg/dL
TP [6]: 5.8 g/dL
gamma-GTP [6]: 1 IU/L
TERMINAL_BW [7]: 226.6 g
TERMINAL_BW [8]: 270 g
TERMINAL_BW [9]: 302.8 g
APTT [7]: 22.8 s
Bas [7]: 0%
Eos [7]: 1%
Fbg [7]: 321.8 mg/dL
Lym [7]: 80.8%
MCHC [7]: 34%
MCV [7]: 60.4 fL
Mono [7]: 2%
Neu [7]: 15.2%
PT [7]: 15.3 s
Plat [7]: 109.2 x10_4/uL
RBC [7]: 705.4 x10_4/ul
Ret [7]: 4.8%
WBC [7]: 100.2 x10_2/uL
APTT [8]: 24.3 s
Bas [8]: 0%
Eos [8]: 0.4%
Fbg [8]: 320.6 mg/dL
Ht [8]: 44.2%
Lym [8]: 80%
MCH [8]: 20.1 pg
MCV [8]: 58.9 fL
Mono [8]: 2%
Neu [8]: 16.6%
PT [8]: 15.5 s
Plat [8]: 110.4 x10_4/uL
RBC [8]: 750.4 x10_4/ul
Ret [8]: 3.5%
WBC [8]: 105.7 x10_2/uL
APTT [9]: 23.7 s
Bas [9]: 0%
Eos [9]: 1%
Fbg [9]: 308.2 mg/dL
Lym [9]: 75.6%
MCH [9]: 19.1 pg
MCHC [9]: 34.9%
MCV [9]: 54.8 fL
Mono [9]: 2.8%
Neu [9]: 18.8%
PT [9]: 15.9 s
Plat [9]: 97.1 x10_4/uL
RBC [9]: 829 x10_4/ul
Ret [9]: 2.1%
WBC [9]: 98.3 x10_2/uL
KIDNEY_L [7]: 1 g
KIDNEY_R [7]: 1 g
KIDNEY_TOTAL [7]: 2 g
KIDNEY_L [8]: 1.2 g
KIDNEY_R [8]: 1.2 g
KIDNEY_TOTAL [8]: 2.4 g
KIDNEY_L [9]: 1.2 g
KIDNEY_R [9]: 1.2 g
KIDNEY_TOTAL [9]: 2.5 g
ALP [7]: 1284.2 IU/L
ALT [7]: 41.2 IU/L
AST [7]: 74.6 IU/L
CRE [7]: 0.1 mg/dL
Ca [7]: 10.4 mg/dL
Cl [7]: 106.2 meq/L
DBIL [7]: 0 mg/dL
GLC [7]: 182.8 mg/dL
IP [7]: 8.5 mg/dL
K [7]: 4.2 meq/L
LDH [7]: 175.6 IU/L
RALB [7]: 3 g/dL
TBIL [7]: 0.016 mg/dL
TC [7]: 84 mg/dL
TG [7]: 77.4 mg/dL
TP [7]: 5.7 g/dL
gamma-GTP [7]: 1.6 IU/L
ALP [8]: 1222.6 IU/L
ALT [8]: 46.8 IU/L
AST [8]: 80.6 IU/L
CRE [8]: 0.2 mg/dL
Ca [8]: 10.6 mg/dL
Cl [8]: 105.8 meq/L
DBIL [8]: 0 mg/dL
GLC [8]: 184.8 mg/dL
IP [8]: 8 mg/dL
K [8]: 4.2 meq/L
LDH [8]: 140.2 IU/L
RALB [8]: 3.1 g/dL
TBIL [8]: 0.022 mg/dL
TC [8]: 80.4 mg/dL
TG [8]: 83.4 mg/dL
TP [8]: 5.8 g/dL
gamma-GTP [8]: 2 IU/L
ALP [9]: 1068.4 IU/L
ALT [9]: 53.8 IU/L
AST [9]: 85.4 IU/L
CRE [9]: 0.2 mg/dL
Ca [9]: 10.4 mg/dL
Cl [9]: 106.2 meq/L
DBIL [9]: 0 mg/dL
GLC [9]: 180.8 mg/dL
IP [9]: 7.8 mg/dL
K [9]: 4.2 meq/L
LDH [9]: 163 IU/L
RALB [9]: 3.2 g/dL
TBIL [9]: 0.034 mg/dL
TC [9]: 80.2 mg/dL
TG [9]: 77 mg/dL
TP [9]: 6 g/dL
gamma-GTP [9]: 2.6 IU/L
